Where two headings read alike, the source gives them in different places.
What was measured:
[1] = tested on: THP1-differentiated macrophages; test: Toxicity of aurones on THP1-differentiated macrophages (MTT assay); format: cell-based, human; details: for IC50: Homo sapiens, Macrophage, 72 h incubation, MTT assay, cytotoxicity; for toxicity to mammalian (THP1) cells, in words: THP1-differentiated macrophages
Experimental: The human leukaemia monocyte THP1 cell line was cultured as a monolayer at 37°C in a humidified atmosphere containing 5% CO2. Cells were grown in RPMI 1640 medium, supplemented with 10% heat-inactivated FBS, 2 mM L-glutamine, 100 U/mL penicillin, and 100 μg/mL streptomycin, and were maintained in culture, by subpassage every 3 days.
For macrophage differentiation, human leukaemia monocyte cell line (THP-1 cells) cells were incubated in the presence of 20 ng/ml phorbol 12-myristate 13-acetate (PMA, Sigma-Aldrich) for 18 h at 37°C, 5% CO2, and left another 24 h with fresh medium containing no PMA to induce maturation. Serial dilutions of each aurone, ranging from 100 to 1.56 μM in culture media, were added to the wells, in quadruplicate, and incubated for 72 h at 37°C, 5% CO2. Cell viability was assessed by the MTT assay, as described before.
The IC50 value, that is, the concentration of the aurone necessary to decrease cell viability to 50% of the untreated control, was determined by linear regression analysis.

[2] = tested on: L. infantum intracellular amastigotes; test: Growth inhibition of luciferase-expressing L. infantum intracellular amastigotes in THP1-differentiated macrophages; format: cell-based, Leishmania infantum; details: for IC50: Leishmania infantum, Macrophage, 72 h incubation, luciferase activity, infected THP1-differentiated macrophages
Experimental: A cloned line of L. infantum (MOM/MA671 TMAP263) promastigotes, stably expressing the luciferase gene (LUC), was grown in RPMI 1640 medium (Bio Whitaker, Belgium) supplemented with 10% heat-inactivated fetal bovine serum (FBS) (Bio Whitaker, Belgium), 2 mML-glutamine (Bio Whitaker, Belgium), 20 mM Hepes (Bio Whitaker, Belgium), 100 U/mL penicillin, and 100 μg/mL streptomycin (Bio Whitaker, Belgium). Selection of LUC positive parasites was done by adding geneticin-sulphate (Sigma-Aldrich, USA) to the culture media at a final concentration of 5 μg/mL. Parasites were maintained in culture, at 26°C by subpassage ([…]) at every 5 days.
L. infantum axenic amastigotes, stably expressing the LUC gene were derived from promastigotes by culturing them in MAA (Medium for Axenic Amastigotes) culture medium. MAA consisted of a modified medium 199 with Hanks balanced salt solution (Gibco-Invitrogen, Spain) supplemented with 0.5% soya broth trypto-casein (Bio-Rad, UK), 15 mM D-glucose (Panreac, Spain), 4 mM NaHCO3 (Sigma-Aldrich, USA). The pH was adjusted to 5.8, and the media was 0.2 μm sterilized by filtration and further supplemented with 0.023 mM bovine hemin (Fluka, USA), 5 mM L-glutamine, and 25% of heat inactivated FBS. Amastigotes were maintained in culture, at 37°C in an atmosphere containing 5% CO2 by subpassage (10^5 parasites/mL), at every 5 days.
THP1-differentiated macrophages were infected for a period of 4 h with stationary phase LUC expressing, L. infantum axenic amastigotes, at a 5 : 1 parasite to cell ratio. After the infection period, cells were washed with culture media to remove noninternalized parasites. Serial dilutions of the aurones, ranging from 50 to 0.78 μM in culture media, were added to the wells, in quadruplicate, and incubated for 72 h at 37°C, 5% CO2. After the incubation period, the luciferase activity of intracellular amastigotes was determined as described before. The percentage of growth inhibition was calculated as described above.

[3] = ratio of IC50 on THP1-differentiated macrophages to IC50 on intracellular parasite

## COc1cc(OC)c2c(c1)O/C(=C\c1ccccc1)C2=O [Compound 4l, 4,6-Dimethoxyaurone]
[1]
  IC50: 57.5 ± 3.4 µM
other
  melting point: 139 to 142 °C
[2]
  IC50: 2.1 ± 0.9 µM
[2]; [3]
  Selectivity index (SI): 26.9

## COc1cc(OC)c2c(c1)O/C(=C\c1ccccc1OC)C2=O [Compound 4i, 2′,4,6-trimethoxyaurone]
[1]
  IC50: 75.4 ± 4.7 µM
[2]
  IC50: 1.3 ± 0.1 µM
[2]; [3]
  Selectivity index (SI): 57.5

## C[C@@H]1[C@H](O)[C@@H](C)/C=C/C=C/C=C/C=C/C=C/C=C/C=C/[C@H](O[C@@H]2O[C@H](C)[C@@H](O)[C@H](N)[C@@H]2O)C[C@@H]2O[C@](O)(C[C@@H](O)C[C@@H](O)[C@H](O)CC[C@@H](O)C[C@@H](O)CC(=O)O[C@H]1C)C[C@H](O)[C@H]2C(=O)O [Amphotericin B, reference compound]
[1]
  IC50: 23.8 ± 2.3 µM
[2]
  Selectivity index (SI): 20.6
  IC50: 1.2 ± 0.1 µM

## COc1cc(OC)c2c(c1)O/C(=C\c1ccccc1C)C2=O [Compound 4j, 4,6-Dimethoxy-2′-methylaurone]
[1]
  IC50: 68.1 ± 2.1 µM
other
  melting point: 180 to 183 °C
[2]
  IC50: 1.6 ± 0.2 µM
[2]; [3]
  Selectivity index (SI): 43.4

## COc1ccc(/C=C2\Oc3ccccc3C2=O)cc1 [Compound 4a]
[1]
  IC50: 16.5 ± 3.1 µM

## Cc1ccc(/C=C2\Oc3ccccc3C2=O)cc1 [Compound 4b]
[1]
  IC50: 8.5 ± 0.8 µM

## COc1ccccc1/C=C1\Oc2ccccc2C1=O [Compound 4d]
[1]
  IC50: 17.5 ± 3.1 µM

## O=C1/C(=C/c2ccc(Cl)cc2)Oc2ccccc21 [Compound 4c]
[1]
  IC50: 14.5 ± 2.1 µM

## COc1cccc(/C=C2\Oc3ccccc3C2=O)c1 [Compound 4e]
[1]
  IC50: 54.2 ± 7.3 µM
  toxicity to mammalian (THP1) cells, in words: did not show significant toxicity
[2]
  IC50: 4.7 ± 0.5 µM
[2]; [3]
  Selectivity index (SI): 11.5

## COc1cc(OC)c2c(c1)O/C(=C\c1ccccc1Cl)C2=O [Compound 4k, 4,6-Dimethoxy-2′-chloro-aurone]
[1]
  IC50: > 100 µM
  toxicity to mammalian (THP1) cells, in words: not toxic to mammalian cells
other
  melting point: 191 to 193 °C
[2]
  IC50: 12.2 ± 1.4 µM
[2]; [3]
  Selectivity index (SI): >8.2

## COc1ccc(/C=C2\Oc3cc(OC)cc(OC)c3C2=O)cc1 [Compound 4h]
[1]
  IC50: 19.6 ± 2.5 µM

## COc1ccc(/C=C2\Oc3ccccc3C2=O)cc1OC [Compound 4f]
[1]
  IC50: 20.5 ± 1.2 µM

From publication PMC4207450, “Aurones: A Promising Heterocyclic Scaffold for the Development of Potent Antileishmanial Agents” (International Journal of Medicinal Chemistry, 2012)
